Here are results for 22 compounds from ChEMBL document CHEMBL1201862, “PubChem BioAssay data set” (2004).

Among the test systems are DMS-273; M19-MEL; HOP-18; LXFL 529; DMS-114; KM-20L2; RXF 631; SNB-78; XF498.
Holding throughout (assay): growth of human tumour cells (NCI), 48 h

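48-hour exposure; five concentrations; linearly interpolated endpoints. GI50 = concentration required for 50% inhibition of growth.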 Activity calls are given as the source filed them. Rule as the data show it: active = GI50 up to about 1.1 µM and inactive = higher. Bounds are passed on as bounds.

As for `Cc1nc2cc(Nc3ccccc3C(=O)O)ccc2s1`, the GI50 was > 100 µM (inactive) with DMS-273; > 100 µM (inactive) with M19-MEL; 88.9 µM (inactive) in the experiment with HOP-18; > 100 µM (inactive) in the experiment with LXFL 529; > 100 µM (inactive) in the experiment with DMS-114; > 100 µM (inactive) with KM-20L2.

With `CC(C)(C)C(=O)Nc1cccc2oc(-c3ccccc3)cc12`, the GI50 in the experiment with DMS-273 was > 100 µM (inactive); with RXF 631 it was 47 µM (inactive); in the experiment on M19-MEL, > 100 µM (inactive); in the experiment on HOP-18, > 100 µM (inactive); in the experiment on LXFL 529, 36.3 µM (inactive); with DMS-114, > 100 µM (inactive). Besides, the values for the GI50 with KM-20L2 and in the experiment on SNB-78 were > 100 µM (inactive) and 14.1 µM (inactive), respectively.

`O=C1Nc2ccc(Cl)c(I)c2C1=O`: the GI50 with DMS-273 is 16.5 µM (inactive); with XF498 it was 18.3 µM (inactive); with M19-MEL it was 11.7 µM (inactive); with LXFL 529, 16.8 µM (inactive); in the experiment on DMS-114 it was 17.5 µM (inactive); in the experiment with KM-20L2, 19.7 µM (inactive).

As to `Cc1ccccc1C(C#N)C(=O)C(=O)Nc1nc([N+](=O)[O-])cs1` (stereo not drawn), the GI50 with RXF 631, in the experiment on XF498, in the experiment on M19-MEL, with HOP-18, in the experiment on LXFL 529 and with DMS-114 was > 100 µM (inactive) in each case. For the same compound, the GI50 in the experiment with KM-20L2 and in the experiment with SNB-78 was > 100 µM (inactive) throughout.

In the case of `CC1=CCCC(OC(N)=O)C1` (stereo not drawn), the GI50 in the experiment with DMS-273, in the experiment on RXF 631, in the experiment on XF498, in the experiment on M19-MEL, with HOP-18 and in the experiment on LXFL 529 was > 100 µM (inactive) in each case. For the same compound, the GI50 in the experiment on KM-20L2 and with SNB-78 was > 100 µM (inactive) throughout.

As for `CSc1nc(NC2OCC(OC(C)=O)C(OC(C)=O)C2OC(C)=O)c(/N=C\C=N\c2c(NC3OCC(OC(C)=O)C(OC(C)=O)C3OC(C)=O)nc(SC)[nH]c2=O)c(=O)[nH]1` (stereo not drawn), the GI50 was > 100 µM (inactive) in the experiment on DMS-273; 74 µM (inactive) in the experiment on RXF 631; > 100 µM (inactive) in the experiment with M19-MEL; > 100 µM (inactive) in the experiment with HOP-18; > 83.6 µM (inactive) in the experiment with LXFL 529; > 100 µM (inactive) in the experiment with DMS-114. In addition, the figures for the GI50 with KM-20L2 and in the experiment with SNB-78 were > 100 µM (inactive) and > 94.6 µM (inactive), respectively.

As for `O=C(O)CNS(=O)(=O)c1ccc(NC(=O)c2ccccc2[N+](=O)[O-])cc1`, the GI50 in the experiment on DMS-273, in the experiment on XF498, in the experiment on M19-MEL, in the experiment on HOP-18, in the experiment with LXFL 529 and in the experiment with KM-20L2 was > 100 µM (inactive) each time.

For `ClC(Cl)=C1C(=C(Cl)Cl)C(Cl)(Cl)C1(Cl)Cl`, the GI50 in the experiment on DMS-273 was 2.64 µM (inactive); in the experiment with RXF 631, 3.21 µM (inactive); in the experiment with XF498, 9.2 µM (inactive); with M19-MEL, 2.72 µM (inactive); in the experiment on HOP-18, 5.9 µM (inactive); in the experiment with LXFL 529, 0.938 µM (active). Moreover, the values for the GI50 with DMS-114, in the experiment with KM-20L2 and with SNB-78 were 0.748 µM (active), 4.41 µM (inactive) and 2.34 µM (inactive), respectively.

In the case of `O=S1(=O)c2cc(S(=O)(=O)n3ccnc3)ccc2NC2=NCCCN21`, the GI50 is 35.3 µM (inactive) in the experiment on M19-MEL; 42.2 µM (inactive) in the experiment with HOP-18; 31.5 µM (inactive) in the experiment on LXFL 529; 22.1 µM (inactive) in the experiment on DMS-114; 22.3 µM (inactive) in the experiment on KM-20L2.

For `Oc1ccc(O)c(-n2cccn2)c1-n1cccn1`, the GI50 with DMS-273 is > 100 µM (inactive); in the experiment on XF498 it was > 100 µM (inactive); in the experiment on M19-MEL, 35.8 µM (inactive); with LXFL 529, > 100 µM (inactive); in the experiment on DMS-114, > 100 µM (inactive); with KM-20L2, > 100 µM (inactive). Also, in the experiment on SNB-78, the GI50 was > 100 µM (inactive).

As for `NC(=S)N/N=C1/CN(c2ccc(Cl)c(Cl)c2)CC(=O)C1c1nc2ccccc2s1` (stereo not drawn), the GI50 was > 100 µM (inactive) in the experiment on DMS-273; > 100 µM (inactive) with XF498; > 100 µM (inactive) with M19-MEL; 37.8 µM (inactive) in the experiment on LXFL 529; 51.8 µM (inactive) with DMS-114; > 100 µM (inactive) with KM-20L2. For the same compound, the GI50 in the experiment on SNB-78 was > 100 µM (inactive).

Consider `CCOC(=O)C1C2CCC(C2)C1(CCl)C(=O)OCC` (stereo not drawn), for which the GI50 with DMS-273, with RXF 631, in the experiment on M19-MEL, with HOP-18, in the experiment on LXFL 529 and in the experiment with DMS-114 was > 100 µM (inactive) each time. Besides, the GI50 in the experiment with KM-20L2 is > 100 µM (inactive).

Take `COc1ccc(/C=C(\Cl)c2ccc(OC)c(OC)c2)cc1OC`: the GI50 in the experiment with DMS-273, with M19-MEL, in the experiment with LXFL 529, in the experiment with DMS-114 and in the experiment with KM-20L2 was > 100 µM (inactive) throughout.

Take `O=C(O)C1(C(=O)O)CC1`: the GI50 in the experiment with DMS-273, in the experiment on RXF 631, with XF498, in the experiment on M19-MEL, in the experiment with HOP-18 and in the experiment with LXFL 529 was > 100 µM (inactive) in each case. Moreover, the GI50 with DMS-114, with KM-20L2 and in the experiment on SNB-78 was > 100 µM (inactive) in each case.

`CCc1ccccc1NC(=O)CCc1nnc(S)[nH]1`: the GI50 in the experiment on DMS-273, with RXF 631, in the experiment with XF498, in the experiment with M19-MEL, in the experiment with LXFL 529 and in the experiment on DMS-114 was > 100 µM (inactive) throughout. In addition, the GI50 with KM-20L2 and in the experiment with SNB-78 was > 100 µM (inactive) each time.

For the compound `CS(=O)(=O)c1ccc(-c2cc(-c3ccc(S(C)(=O)=O)cc3)[n+](-c3cc(-c4ccc(S(C)(=O)=O)cc4)c([O-])c(-c4ccc(S(C)(=O)=O)cc4)c3)c(-c3ccc(S(C)(=O)=O)cc3)c2)cc1`, the GI50 in the experiment with DMS-273, in the experiment on RXF 631, in the experiment with M19-MEL, in the experiment with HOP-18, in the experiment on LXFL 529 and in the experiment on DMS-114 was > 100 µM (inactive) throughout. Besides, the GI50 with KM-20L2 and in the experiment with SNB-78 was > 100 µM (inactive) throughout.

`C#CCN(N=O)C(=O)ON1C(=O)CCC1=O`: the GI50 in the experiment with DMS-273, with M19-MEL, in the experiment on HOP-18, in the experiment with LXFL 529, with DMS-114 and with KM-20L2 was > 100 µM (inactive) in each case. Also, in the experiment on SNB-78, the GI50 is > 100 µM (inactive).

As to `CC1=C(C#N)C(=O)CC(c2ccc(Cl)cc2)N(C)N1` (stereo not drawn), the GI50 in the experiment on XF498 was > 100 µM (inactive); with HOP-18 it was 24.4 µM (inactive); with LXFL 529, > 100 µM (inactive); with DMS-114, > 100 µM (inactive); with SNB-78, > 100 µM (inactive).

Regarding `FC(F)(F)c1ccccc1/C=N/C12CC3CC(CC(C3)C1)C2`, the GI50 in the experiment on DMS-273, in the experiment with XF498, in the experiment on M19-MEL, in the experiment with DMS-114, in the experiment on KM-20L2 and in the experiment on SNB-78 was > 100 µM (inactive) each time.

Regarding `O=C(O)CCC(NC(=O)c1ccc(Nc2nc3ccccc3nc2-c2cccs2)cc1)C(=O)O` (stereo not drawn), the GI50 in the experiment with DMS-273, in the experiment on RXF 631, in the experiment with XF498, in the experiment on M19-MEL, in the experiment on HOP-18 and in the experiment on LXFL 529 was > 100 µM (inactive) each time. The GI50 in the experiment with DMS-114, in the experiment on KM-20L2 and in the experiment with SNB-78 was > 100 µM (inactive) in each case.

Take `O=S(=O)(c1ccccc1)N1N=C2c3ccccc3CCC[C@H]2C1c1ccccc1` (stereo partly drawn): the GI50 with DMS-273, in the experiment on XF498, in the experiment on M19-MEL, in the experiment with HOP-18, in the experiment with LXFL 529 and with DMS-114 was > 100 µM (inactive) in each case. The GI50 in the experiment with KM-20L2 and in the experiment on SNB-78 was > 100 µM (inactive) each time.

For `N#CC(C#N)=C(C(C#N)C#N)C(C#N)C#N`, the GI50 in the experiment on DMS-273, in the experiment with RXF 631, in the experiment with XF498, with M19-MEL, with LXFL 529 and with DMS-114 was > 100 µM (inactive) throughout. Further, the GI50 with KM-20L2 and in the experiment with SNB-78 was > 100 µM (inactive) each time.
